Measurements from ChEMBL document CHEMBL5634101, “Discovery of NLRP3 inhibitors using machine learning: Identification of a hit compound to treat NLRP3 activation-driven diseases” (Eur J Med Chem, 2023).

Molecular target: NACHT, LRR and PYD domains-containing protein 3 (Homo sapiens, UniProt Q96P20)
Test: Inhibition of NLRP3 inflammasome activation in PMA-differentiated human THP-1 cells assessed as reduction in IL-1beta secretion pre-stimulated with PMA for 24 hrs followed by compound addition and measured after 30 mins by ELISA
Format: cell-based

Sequence of NACHT, LRR and PYD domains-containing protein 3 (Q96P20 whole entry, the tested form may be a part): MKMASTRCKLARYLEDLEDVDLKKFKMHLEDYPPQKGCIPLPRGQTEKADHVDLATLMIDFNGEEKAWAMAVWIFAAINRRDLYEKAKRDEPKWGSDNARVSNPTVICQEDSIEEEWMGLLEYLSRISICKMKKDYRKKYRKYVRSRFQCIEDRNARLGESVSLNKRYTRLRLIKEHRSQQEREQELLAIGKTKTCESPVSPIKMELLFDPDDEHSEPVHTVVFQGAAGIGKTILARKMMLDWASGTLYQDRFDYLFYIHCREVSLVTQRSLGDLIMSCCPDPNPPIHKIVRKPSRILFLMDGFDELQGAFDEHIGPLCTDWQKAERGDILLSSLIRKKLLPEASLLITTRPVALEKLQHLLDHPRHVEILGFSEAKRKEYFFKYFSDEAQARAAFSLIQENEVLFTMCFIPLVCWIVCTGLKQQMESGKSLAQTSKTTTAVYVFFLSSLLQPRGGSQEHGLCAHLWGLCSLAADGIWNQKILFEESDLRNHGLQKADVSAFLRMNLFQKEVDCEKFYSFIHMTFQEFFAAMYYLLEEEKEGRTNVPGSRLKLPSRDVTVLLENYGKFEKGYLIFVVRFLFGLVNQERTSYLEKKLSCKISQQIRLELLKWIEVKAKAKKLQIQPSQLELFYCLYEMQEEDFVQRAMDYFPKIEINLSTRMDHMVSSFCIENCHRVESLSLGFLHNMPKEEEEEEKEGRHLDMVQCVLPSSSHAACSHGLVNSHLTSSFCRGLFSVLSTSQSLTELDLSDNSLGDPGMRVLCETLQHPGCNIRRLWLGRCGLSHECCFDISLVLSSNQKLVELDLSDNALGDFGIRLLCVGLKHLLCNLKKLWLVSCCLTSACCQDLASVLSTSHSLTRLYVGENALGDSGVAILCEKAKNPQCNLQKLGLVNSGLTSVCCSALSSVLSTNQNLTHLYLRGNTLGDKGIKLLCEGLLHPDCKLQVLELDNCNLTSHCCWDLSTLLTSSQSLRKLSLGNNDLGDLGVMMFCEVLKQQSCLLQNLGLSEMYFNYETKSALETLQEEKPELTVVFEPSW

IC50: 13.9 µM
SMILES: O=C(O)CCCCCN1C(=O)/C(=C/c2c[nH]c3ccccc23)SC1=S
